Legend:
delta-2-tubulin [1] = test: Quantitative immunofluorescence of tubulin post-translational modifications in DRG and sural nerve of treated rats; type: in vivo, female Wistar rats
Description: FIG. 2. Immunofluorescence analysis of selected α-tubulin post-translational modifications in neuronal tissue from chronically treated rats. Relative tubulin post-translational modifications levels measured by quantitative immunofluorescence in randomly selected dorsal root ganglion cell bodies (DRG) and sural nerve (SN) from rats (4 per group) treated with chronic (0.2 mg/kg, 3× week for 8 weeks) doses of Bortezomib. Data are mean values±SEM. ****, p≤0.0001; ***, p≤0.001; **, p≤0.01; *, p≤0.05 by ANOVA (in red,) or unpaired, two-tailed t-test (in black).
FIG. 3A-3C. […] (A) Representative immunofluorescence staining of DRG isolated from rats acutely treated with Bortezomib. (B) Relative tubulin post-translational modifications levels measured by quantitative immunofluorescence in randomly selected DRG and SN from rats (4 per group) treated with acute (i.v. 0.2 mg/kg; 24 hr) doses of Bortezomib. Data are mean values±SEM, ****, p≤0.0001; ***, p≤0.001; **, p≤0.01; *, p≤0.05 by ANOVA (A in red,) or unpaired, two-tailed t-test (A in black). (C) Schematic of the enzymes involved in D2 generation.
FIG. 13A-13E. […] (A) Immunofluorescence staining of Peripherin (smaller unmyelinated C-fibers) or (B) NF200 (large myelinated A-β fibers)(C) TrkC (proprioceptive)(D) TrkA (nociceptive) in DRG L4-L5 dissected from rats treated with Bortezomib for 24 hr. (E) Correlation between peripherin, NF200, TrkC, TrkA and D2 intensity values in randomly selected DRG cell bodies was calculated by using Pearson coefficient (r). Scale bar, 50 μm.
To determine the effects of bortezomib on the post-translation modifications of tubulin, female Wistar rats were treated with single or multiple administrations pf bortezomib (5 rats for each treatment). Acute treatment included a single intravenous administration of bortezomib at a concentration of 0.2 mg/kg. Chronically treated rats were treated with bortezomib for a total of 8 weeks, with administration of bortezomib three times per week at a concentration of 0.2 mg/kg.
To determine the effect of bortezomib on tubulin expression, DRGs were analyzed for delta-2-tubulin expression. […] Further analysis of other unrelated chemotherapy-induced peripheral neuropathy (CIPN) drugs was performed to determine their effect on delta-2-tubulin expression levels. […] Additional experiments were performed to determine whether DRGs with different sensory modalities and diameters are preferentially affected by bortezomib treatment.

delta-2-tubulin [2] = test: Delta-2-tubulin levels in cultured neurons (western blot, immunofluorescence); type: cell-based; settings: for delta-2-tubulin expression: cultured hippocampal and DRG neurons (FIG. 6)
Description: FIG. 6. Bortezomib induces delta-2-tubulin in DRG neurons as shown by western blot analysis of delta-2-tubulin levels from whole cell lysates of adult DRG neurons treated with Bortezomib and immunofluorescence of delta-2-tubulin in cultured DRG neurons treated with Bortezomib.
(§1) FIG. 7A-7D. Bortezomib induces delta-2-tubulin at the onset of axonal degeneration. (A) Representative immunofluorescence of D2 and βIII-tub staining in DRG neurons treated with 100 nM of Bortezomib for the indicated times. Bar, 50 μm. (B) Ratio analysis of D2/βIII-tubulin levels measured by immunofluorescence of fixed cells treated as in A. **, p≤0.01, ****, p≤0.0001 by t-test (unpaired, two-tailed). […] Data are mean values±SEM from 3 experiments. (D) Number of retraction bulbs per field in DRG neurons treated with 100 nM of Bortezomib for the indicated times. **, p≤0.01.
FIG. 12. (A) Immunoblot of D2 levels from whole cell lysates of adult DRG neurons (14 DIV) treated with increasing doses of Bortezomib for the indicated times. (B) IB of D2 levels in the MT pellet (P) and soluble tubulin (S) fractions isolated from adult DRG neurons (8 DIV) treated with 100 nM of Bortezomib for the indicated times.
(§2) Peripheral neurons from patients suffering from CIPN were analyzed for delta-2-tubulin expression. […] In addition.

[3] = Dynamic test, plantar test and electrophysiological tests in rats chronically treated with bortezomib; type: in vivo, female Wistar rats; settings: chronic: 0.2 mg/kg, three times per week, 8 weeks
Description: FIG. 1A-1D. Chronic doses of bortezomib affect animal behavior and nerve function. (A) Hind-paw withdrawal response to mechanical stimulus (10-50 g). (B) Plantar withdrawal latency response to heat source (infra-red light). Dynamic and plantar tests were performed before (baseline value), after 4-week and at the end point of treatment with Bortezomib. Data are expressed as mean values±SD, n animals=12. (C, D) Caudal and digital nerve conduction velocity (NCV) and amplitude measured in rats treated chronically with Bortezomib. n=8-10 per group; *p<0.05 compared to control.
To determine the effects of bortezomib on the post-translation modifications of tubulin, female Wistar rats were treated with single or multiple administrations pf bortezomib (5 rats for each treatment). Acute treatment included a single intravenous administration of bortezomib at a concentration of 0.2 mg/kg. Chronically treated rats were treated with bortezomib for a total of 8 weeks, with administration of bortezomib three times per week at a concentration of 0.2 mg/kg. […] Certain post-translation modifications of α-tubulin, e.g., acetylation, are reduced in dorsal root ganglions neurons (DRGs) and sural nerves (SNs) from rats chronically treated with bortezomib (FIG. 2) and in rats acutely treated with bortezomib (FIG. 3).

delta-2-tubulin [4] = test: Delta-2-tubulin in sural nerve biopsy of CIPN patients (immunofluorescence, immunoblot); type: in vivo; settings: CIPN patients (FIG. 5)
Excerpt: FIG. 5A-5C. Bortezomib induces delta-2-tubulin in CIPN patients. (A) Representative immunofluorescence staining of SN isolated from a patient affected by CIPN. (B) Ratio analysis of D2/βIII-tubulin levels measured by immunofluorescence of fixed tissue from one SN biopsy. Data are mean values from 3 sections±SEM, ****, p<0.0001 by t-test (unpaired, two-tailed). (C) Immunoblot of D2 levels in whole cell lysates from one SN biopsy. Tyr, tyrosinated tubulin.
as §2

DRG neurons [5] = test: Axonal degeneration (degeneration index) in cultured DRG neurons; type: cell-based; settings: DRG neurons treated with 100 nM for the indicated times (FIG. 7C)
Description: as §1
FIG. 9A-9E. Delta-2-tubulin accumulation is sufficient to drive axonopathy. (A) Schematic of the enzymes involved in D2 generation. (B) Immunoblot of tubulin tyrosine ligase (TTL), D2 and tyrosinated (TYR) tubulin levels in adult DRG neurons (14 DIV) silenced of TTL expression at 7 DIV. (C) Representative immunofluorescence images of DRG neurons as in B. (D) Axonal degeneration and number of retraction bulbs per field in DRG neurons treated as in B. (E) Axonal degeneration in DRG neurons that overexpress D2-(PVLX-EGFP-D2Tub) or WT-tubulin (PVLX-EGFP-Tub). Data are mean values±SEM from 3 experiments. ***, p≤0.001; **, p≤0.01, *p≤0.05 by t-test (unpaired, two-tailed). Bar, […].
FIG. 14A-14D. […]
Peripheral neurons from patients suffering from CIPN were analyzed for delta-2-tubulin expression. […]

DRG neurons [6] = test: EGFP-EB3 analysis of microtubule dynamics in DRG neurons; type: cell-based; settings: DRG neurons 7 DIV, 100 nM, prior to delta-2-tubulin induction (FIG. 8)
Description: FIG. 8. Bortezomib induces MT stability without affecting MT dynamics prior to D2 induction. EGFP-EB3 time course analysis of MT dynamics parameters in DRG neurons (7 days in vitro (DIV)) treated with 100 nM Bortezomib for the indicated times. Data were pulled from up to 300 comets and 12-15 neurites for each group and analyzed by one-way ANOVA, multiple comparison. (NS, non-significant).
(§3) Microtubule dynamics were analyzed in DRG neurons following bortezomib treatment. […] TTL binds αβ-tubulin dimer and catalyzes the post-translational addition of a tyrosine to the C-terminal end of detyrosinated α-tubulin. Song et al., J. of Bio. Chem. 290(23):14765-14775 (2015).

[7] = system: tubulin tyrosine ligase (TTL); test: Immunoblot of tubulin tyrosine ligase (TTL) and D2 levels in adult DRG neurons; type: cell-based; settings: adult DRG neurons 14 DIV, 100 nM (FIG. 11)
Description: FIG. 11. Immunoblot of tubulin tyrosine ligase (TTL) and D2 levels in adult DRG neurons (14 DIV) treated with 100 nM Bortezomib.
as §3

DRG neurons [8] = test: Mitochondrial motility in DRG neurons (mito-DsRed kymographs); type: cell-based; settings: 100 nM for 24 hr (FIG. 15D)
Description: FIG. 15A-15F. D2 accumulation is necessary and sufficient to affect mitochondria motility. (A) Representative kymographs of mitochondrial motility in DRG neurons (7 DIV) infected for 4 days with PVLX-EGFP-D2- or WT-Tubulin lentivirus prior to 72 hr infection with mito-DsRed lentivirus. (B) Quantification of the percentage of moving mitochondria as in A. Videos (10 s/frame for 30 min). (C, F) Percentage of different mitochondria movement states, Dynamic Pause (DP), Stationary (STA), Anterograde Running (AR), Retrograde Running (RR) (1 s/frame for 3 min, C), (10 s/frame for 30 min, F). (D) Representative kymographs of mitochondrial motility in DRG neurons (7 DIV) infected for 4 days with ShCCP1 or shControl lentivirus prior 72 hr infection with mito-DsRed lentivirus followed by Bortezomib treatment (100 nM for 24 hr). (E) Quantification of the percentage of moving mitochondria as in D. Videos (10 s/frame for 30 min). […]
To determine the effect bortezomib and delta-2 tubulin accumulation have on mitochondrial motility, DRG neurons were transduced with lentivirus to express wild-type tubulin or delta-2 tubulin. […] Expression of delta-2 tubulin affected every state of mitochondrial movement analyzed except for the stationary state (STA) (FIG. 15C). The effect of CCP1 knockdown on mitochondrial movement in the presence of bortezomib was also analyzed.

| axonopathy (DRG neurons [5]) | Structure (SMILES) | delta-2-tubulin in DRG neurons compared to control (delta-2-tubulin [1]; unrelated CIPN drugs, acute (FIG. 4)) | delta-2-tubulin expression (delta-2-tubulin [2]) | animal behavior and nerve function (dynamic test, plantar test, electrophysiological tests) [3] | delta-2-tubulin in proprioceptive and nociceptive DRG neurons (delta-2-tubulin [1]; DRG L4-L5 of rats treated for 24 hr (FIG. 13)) | delta-2-tubulin in DRG cell bodies, compared to βIII-tubulin and control (delta-2-tubulin [1]; acute treatment, single i.v. 0.2 mg/kg, 24 hr (FIG. 3)) | delta-2-tubulin in DRG cell bodies, compared to βIII-tubulin and control (delta-2-tubulin [1]; chronic treatment, 0.2 mg/kg 3x week for 8 weeks (FIG. 2)) | post-translation modifications of α-tubulin, e.g., acetylation, in DRGs and SNs (delta-2-tubulin [1]; rats acutely treated, single i.v. 0.2 mg/kg, 24 hr (FIG. 3)) | post-translation modifications of α-tubulin, e.g., acetylation, in DRGs and SNs (delta-2-tubulin [1]; rats chronically treated, 0.2 mg/kg 3x week for 8 weeks (FIG. 2)) | delta-2-tubulin expression in peripheral neurons, e.g., sural nerve (delta-2-tubulin [4]) | delta-2-tubulin induction relative to axonal degeneration (degeneration index) (delta-2-tubulin [2]; DRG neurons, 100 nM, time course (FIG. 7)) | microtubule dynamics (rescue/nucleation frequency, catastrophe frequency, comet density, growth rate) (DRG neurons [6]) | TTL expression, western blot [7] | delta-2-tubulin, western blot [7] | movement of mitochondria (DRG neurons [8]) |
| --- | --- | --- | --- | --- | --- | --- | --- | --- | --- | --- | --- | --- | --- | --- | --- |
| – | CC(=O)O[C@H]1C(=O)[C@@]2(C)[C@H]([C@H](OC(=O)c3ccccc3)[C@]3(O)C[C@H](OC(=O)[C@H](O)[C@@H](NC(=O)c4ccccc4)c4ccccc4)C(C)=C1C3(C)C)[C@]1(OC(C)=O)CO[C@@H]1C[C@@H]2O [paclitaxel] | acutely accumulated delta-2-tubulin | increase in delta-2-tubulin expression | – | – | – | – | – | – | – | – | – | – | – | – |
| Time dependent increase of axonopathy | CC(C)C[C@H](NC(=O)[C@H](Cc1ccccc1)NC(=O)c1cnccn1)B(O)O [bortezomib] | – | increase in delta-2-tubulin expression | affected animal behavior and nerve function | accumulate delta-2-tubulin | increased | increased | reduced | reduced | induced delta-2-tubulin expression | induced delta-2-tubulin at the onset of axonal degeneration | does not affect microtubule dynamics | reduction of TTL expression | accumulation of delta-2-tubulin | greatly affected the movement of mitochondria |

— patent US12663425B2, “Delta-2-tubulin as a biomarker and therapeutic target for peripheral neuropathy” (THE TRUSTEES OF COLUMBIA UNIVERSITY IN THE CITY OF NEW YORK, priority 2017, dated 2026)
